Measurements taken from ChEMBL document CHEMBL5579852, “Promising anti-proliferative indolic benzenesulfonamides alter mechanisms with sulfonamide nitrogen substituents” (Eur J Med Chem, 2024).
One block for each compound: values may come before it.

Tests used:
HeLa [1] = assay: Antiproliferative activity against human HeLa cells assessed as reduction in cell viability incubated for 72 hrs by MTT assay; format: functional, cell-based
MCF7 = assay: Antiproliferative activity against human MCF7 cells assessed as reduction in cell viability incubated for 72 hrs by CelltiterGlo luminescent assay; format: functional, cell-based; conditions: MCF7, 72 h
BT-474 = assay: Antiproliferative activity against human BT-474 cells assessed as reduction in cell viability incubated for 72 hrs by CelltiterGlo luminescent assay; conditions: BT-474, 72 h
MES-SA = assay: Antiproliferative activity against human MES-SA cells assessed as reduction in cell viability incubated for 72 hrs by CelltiterGlo luminescent assay
HT-1080 = assay: Antiproliferative activity against human HT-1080 cells assessed as reduction in cell viability incubated for 72 hrs by CelltiterGlo luminescent assay; conditions: HT-1080, 72 h
[2] = Antiproliferative activity against human Melmet 5 cells assessed as reduction in cell viability incubated for 72 hrs by CelltiterGlo luminescent assay; conditions: Melmet 5, 72 h
A-375 = assay: Antiproliferative activity against human A-375 cells assessed as reduction in cell viability incubated for 72 hrs by CelltiterGlo luminescent assay; conditions: A-375, 72 h
[3] = Antiproliferative activity against human WM1366 cells assessed as reduction in cell viability incubated for 72 hrs by CelltiterGlo luminescent assay; conditions: WM1366, 72 h
CAKI-1 = assay: Antiproliferative activity against human CAKI-1 cells assessed as reduction in cell viability incubated for 72 hrs by CelltiterGlo luminescent assay; conditions: CAKI-1, 72 h
[4] = Antiproliferative activity against human Hermes 3C cells assessed as reduction in cell viability incubated for 72 hrs by CelltiterGlo luminescent assay; format: toxicity, cell-based
[5] = Antiproliferative activity against human HEK293 cells assessed as reduction in cell viability incubated for 72 hrs by CelltiterGlo luminescent assay; format: toxicity, cell-based
[6] = Antiproliferative activity against human RPE-1 cells assessed as reduction in cell viability incubated for 72 hrs by CelltiterGlo luminescent assay; format: toxicity, cell-based; conditions: RPE-1 cells (TERT-RPE1)
HeLa [7] = assay: Antiproliferative activity against human HeLa cells assessed as reduction in cell viability incubated for 72 hrs by CelltiterGlo luminescent assay; format: functional, cell-based
MDA-MB-468 = assay: cells; conditions: Homo sapiens, MDA-MB-468, 72 h
Description: Antiproliferative activity against human MDA-MB-468 cells assessed as reduction in cell viability incubated for 72 hrs by CelltiterGlo luminescent assay

cells = conditions: Homo sapiens, MDA-MB-468, 72 h
HeLa [8] = assay: Antiproliferative activity against human HeLa cells assessed as inhibition of cell growth incubated for 72 hrs in absence of verapamil by MTT assay; format: functional, cell-based
HeLa [9] = assay: Antiproliferative activity against human HeLa cells assessed as inhibition of cell growth incubated for 72 hrs in presence of verapamil by MTT assay; format: functional, cell-based

Structure (SMILES): COc1cc(S(=O)(=O)N(Cc2cccc([N+](=O)[O-])c2)c2ccc3c(ccn3C)c2)cc(OC)c1OC
- IC50 (HeLa [1]): > 1000 nM

Structure (SMILES): COc1cc(S(=O)(=O)N(CCCCCCN2CCOCC2)c2ccc3c(ccn3C)c2)cc(OC)c1OC
- IC50 (HeLa [1]): > 1000 nM

Structure (SMILES): CC(=O)O[C@@]12CO[C@@H]1C[C@H](O)[C@@]1(C)C(=O)[C@H](O)C3=C(C)[C@@H](OC(=O)[C@H](O)[C@@H](NC(=O)OC(C)(C)C)c4ccccc4)C[C@@](O)([C@@H](OC(=O)c4ccccc4)[C@H]21)C3(C)C [DOCETAXEL ANHYDROUS]
- IC50 (MCF7): 3.9 nM
- IC50 (BT-474): 21.4 nM
- IC50 (MES-SA): 3.4 nM
- IC50 (HT-1080): 1.5 nM
- IC50 [2]: 9.5 nM
- IC50 (A-375): 4.5 nM
- IC50 [3]: 8.5 nM
- IC50 (CAKI-1): 2.7 nM
- IC50 at 72 h [4]: 1.7 nM
- IC50 at 72 h [5]: 7.5 nM
- IC50 at 72 h [6]: 8.2 nM
- IC50 (HeLa [7]): 1 nM
- IC50 (MDA-MB-468): 3.1 nM
- IC50 (cells): 8.3 nM

Structure (SMILES): CCC1=C[C@@H]2CN(C1)Cc1c([nH]c3ccccc13)[C@@](C(=O)OC)(c1cc3c(cc1OC)N(C)[C@H]1[C@@](O)(C(=O)OC)[C@H](OC(C)=O)[C@]4(CC)C=CCN5CC[C@]31[C@@H]54)C2 [VINORELBINE]
- IC50 (MCF7): 0.8 nM
- IC50 (BT-474): 0.3 nM
- IC50 (MES-SA): 0.4 nM
- IC50 (HT-1080): 0.1 nM
- IC50 [2]: 0.1 nM
- IC50 (A-375): 0.6 nM
- IC50 [3]: 0.9 nM
- IC50 (CAKI-1): 0.3 nM
- IC50 at 72 h [4]: 0.5 nM
- IC50 at 72 h [5]: 15.9 nM
- IC50 at 72 h [6]: 9.3 nM
- IC50 (HeLa [7]): 0.3 nM
- IC50 (MDA-MB-468): 0.1 nM

Structure (SMILES): COc1cc(S(=O)(=O)N(CCCCN2CCOCC2)c2ccc3c(ccn3C)c2)cc(OC)c1OC
- IC50 (HeLa [1]): > 1000 nM

Structure (SMILES): COc1cc(S(=O)(=O)N(Cc2ccccc2)c2ccc3c(ccn3C)c2)cc(OC)c1OC
- IC50 (HeLa [1]): > 1000 nM

Structure (SMILES): COc1cc(S(=O)(=O)N(Cc2ccc([N+](=O)[O-])cc2)c2ccc3c(ccn3C)c2)cc(OC)c1OC
- IC50 (HeLa [1]): > 1000 nM

Structure (SMILES): COc1cc(S(=O)(=O)N(CCCCCBr)c2ccc3c(ccn3C)c2)cc(OC)c1OC
- IC50 (HeLa [1]): > 1000 nM

Structure (SMILES): COc1cc(S(=O)(=O)N(CCCCCCBr)c2ccc3c(ccn3C)c2)cc(OC)c1OC
- IC50 (HeLa [1]): > 1000 nM

Structure (SMILES): CCOC(=O)CCCCN(c1ccc2c(ccn2C)c1)S(=O)(=O)c1cc(OC)c(OC)c(OC)c1
- IC50 (HeLa [1]): > 1000 nM

Structure (SMILES): COc1cc(S(=O)(=O)N(CCCCBr)c2ccc3c(ccn3C)c2)cc(OC)c1OC
- IC50 (HeLa [1]): > 1000 nM

More lines, in order of falling IC50 (HeLa [1]), values ahead:

- IC50 (HeLa [1]): 2560 nM
Structure (SMILES): COc1cc(S(=O)(=O)Nc2ccc3c(c2)C=CC3CC#N)cc(OC)c1OC (stereo unspecified)

- IC50 (HeLa [1]): 464 nM
Structure (SMILES): COc1cc(S(=O)(=O)N(Cc2ccc(N)cc2)c2ccc3c(ccn3C)c2)cc(OC)c1OC

- IC50 (HeLa [1]): 275 nM
Structure (SMILES): COc1cc(S(=O)(=O)N(CC(N)=O)c2ccc3c(ccn3C)c2)cc(OC)c1OC

- IC50 (HeLa [1]): 114 nM
Structure (SMILES): COc1cc(S(=O)(=O)N(C)c2ccc3c(c2)C=CC3CC#N)cc(OC)c1OC (stereo unspecified)

- IC50 (HeLa [1]): 109 nM
- IC50 (MCF7): 347 nM
- IC50 (BT-474): 792 nM
- IC50 (HT-1080): 104 nM
- IC50 (A-375): 363 nM
- IC50 (HeLa [7]): 108 nM
- IC50 (HeLa [8]): 123 nM
- IC50 (HeLa [9]): 105 nM
- IC50 (MDA-MB-468): 161 nM
- IC50 (cells): 145 nM
Structure (SMILES): CCN(c1ccc2c(ccn2C)c1)S(=O)(=O)c1cc(OC)c(OC)c(OC)c1
- IC50 (MES-SA): 148 nM
- IC50 [2]: 96.2 nM
- IC50 [3]: 517 nM
- IC50 (CAKI-1): 158 nM
- IC50 at 72 h [4]: 965 nM
- IC50 at 72 h [5]: 323 nM
- IC50 at 72 h [6]: 335 nM

- IC50 (HeLa [1]): 50.9 nM
- IC50 (MCF7): 48.6 nM
- IC50 (BT-474): 40.8 nM
- IC50 (HT-1080): 16.6 nM
- IC50 (A-375): 48.3 nM
- IC50 (HeLa [7]): 68.8 nM
- IC50 (HeLa [8]): 50.9 nM
- IC50 (HeLa [9]): 26.4 nM
- IC50 (MDA-MB-468): 20.3 nM
- IC50 (cells): 72.9 nM
Structure (SMILES): COc1cc(S(=O)(=O)N(CC#N)c2ccc3c(c2)c(C(N)=O)cn3C)cc(OC)c1OC
- IC50 (MES-SA): 14.2 nM
- IC50 [2]: 16.2 nM
- IC50 [3]: 36 nM
- IC50 (CAKI-1): 98.3 nM
- IC50 at 72 h [4]: 88.5 nM
- IC50 at 72 h [5]: 282 nM
- IC50 at 72 h [6]: 33 nM

- IC50 (HeLa [1]): 24.4 nM
- IC50 (MCF7): 60.8 nM
- IC50 (BT-474): 71.1 nM
- IC50 (HT-1080): 65.8 nM
- IC50 (A-375): 86.8 nM
- IC50 (HeLa [7]): 77.3 nM
- IC50 (HeLa [8]): 34.5 nM
- IC50 (HeLa [9]): 27.2 nM
- IC50 (MDA-MB-468): 31.6 nM
- IC50 (cells): 34.4 nM
Structure (SMILES): COc1cc(S(=O)(=O)N(CC#N)c2ccc3c(c2)c(C#N)cn3C)cc(OC)c1OC
- IC50 (MES-SA): 80.3 nM
- IC50 [2]: 32.3 nM
- IC50 [3]: 81.3 nM
- IC50 (CAKI-1): 29.5 nM
- IC50 at 72 h [4]: 70.5 nM
- IC50 at 72 h [5]: 17.7 nM
- IC50 at 72 h [6]: 76.3 nM
